Structures can show the parent of a compound that is named as a salt.
Target: Nicotinic acetylcholine receptor (Rattus leucopus, UniProt Q62594)
Sequence (Q62594 whole entry): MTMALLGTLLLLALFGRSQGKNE

Question: How did the Ki turn out when `CC(NC(C)(C)C)C(=O)c1cccc(Cl)c1` (stereo unspecified) [BUPROPION HYDROCHLORIDE] was run?
Answer: > 10 µM
